Literature values as cited in patent US20160289773A1 (priority 2013, published 2016).
Several values for one entry are separate records, joined by “and”; a condition that tells them apart may be missing. Equal entries are not always repeated.

Experiments:
Haemonchus contortus [1] = conditions: Zaire isolate
Haemonchus contortus [2] = conditions: in vivo

SMILES: c1ccc([C@H]2CN3CCSC3=N2)cc1 [Levamisole, levamisole]
- levamisole susceptibility status of isolate (Haemonchus contortus [1]): susceptible
- Levamisole efficacy (Haemonchus contortus [2]): 100% and > 99%
